Assay results from patent US4931443A, “Piperazine compound and pharmaceutical use thereof” (Yoshitomi Pharmaceutical Industries, Ltd., priority 1986, dated 1990).

Tests used:
serotonin-2 receptor = target: T1, serotonin-2 receptor (Rattus norvegicus, UniProt P14842); test: Affinity for serotonin-2 receptor: 3H-spiperone binding assay; details: rat cerebral cortex synaptosomal membranes; 3H-spiperone 0.5 nM; 37° C., 20 min
T1 construct: from tissue; host or cells: rat cerebral cortex, synaptosomal membranes
Method: (§1) Experiment 3 Affinity for serotonin receptor
(2) Affinity for serotonin-2 receptor: ^3 H-spiperone bindig assay
The preparation of synaptosomal membranes and binding assay were performed according to the method of Peroutka and Snyder (Molecular Pharmacology, vol. 16, p. 687, 1979).
Rat cerebral cortex which was maintained in a freezed state was homogenized in 20-fold volumes of ice-cold 0.32 M sucrose and centrifugated at 1,000 g for 10 minutes at 0° C. The supernatant was centrifugated at 50,000 g for 15 minutes at 0° C. The obtained pellets were homogenized in 20-fold volumes of ice-cold 50 mM Tris-HCl buffer (pH 7.5). The mixture was incubated at 37° C. for 10 minutes, and further centrifugated at 50,000 g for 15 minutes at 0° C. The suspension of synaptosomal membrane was prepared by homogenizing the obtained pellets in 60-fold volumes of the buffer mentioned above containing 1.1 mM ascorbic acid, 4 mM calcium chloride and 10 μM pargyline.
To 900 μl of the suspension of synaptosomal membrane were added 50 μl of ^3 H-spiperone (final concentration : 0.5 nM) and 50 μl of the test compound solution or the solvent, and then incubated at 37° C. for 20 minutes. After the completion of incubation, 5 ml of ice-cold buffer as mentioned above was added. Immediately thereafter, the mixture was filtered with suction through Whatman GF/B filter. The filter was washed twice with 5 ml of the same buffer as mentioned above and the radioactivity on the filter was measured by a liquid scintillation counter.

[1] = system: apomorphine-induced motility; test: Experiment 1 Anti-apomorphine action (motility, Varimex); format: in vivo, male dd-strain mice; details: Mus musculus, po; apomorphine 0.5 mg/kg s.c. 1 h after compound; motility 20 min; dose lowering motility of control by 50%
Method: Experiment 1 Anti-apomorphine action
Groups of 3 male dd-strain mice (4 groups/dose) were used. Test compounds were orally administered and an hour later, 0.5 mg/kg of apomorphine was subcutaneously administered. Immediately thereafter, motility was measured with the aid of Varimex (manufactured by Columbus Co.) for 20 minutes. The ED50 values, the dose of test compound required to lower the motility of the control group by 50%, were graphically calculated.

serotonin-1 receptor = target: T2, serotonin-1 receptor (Rattus norvegicus, UniProt P19327); test: Affinity for serotonin-1 receptor: 3H-8-OH-DPAT binding assay; details: rat hippocampus synaptosomal membranes; 3H-8-OH-DPAT 0.2 nM; pH 7.4, 37° C., 10 min
T2 sequence (P19327 1-422): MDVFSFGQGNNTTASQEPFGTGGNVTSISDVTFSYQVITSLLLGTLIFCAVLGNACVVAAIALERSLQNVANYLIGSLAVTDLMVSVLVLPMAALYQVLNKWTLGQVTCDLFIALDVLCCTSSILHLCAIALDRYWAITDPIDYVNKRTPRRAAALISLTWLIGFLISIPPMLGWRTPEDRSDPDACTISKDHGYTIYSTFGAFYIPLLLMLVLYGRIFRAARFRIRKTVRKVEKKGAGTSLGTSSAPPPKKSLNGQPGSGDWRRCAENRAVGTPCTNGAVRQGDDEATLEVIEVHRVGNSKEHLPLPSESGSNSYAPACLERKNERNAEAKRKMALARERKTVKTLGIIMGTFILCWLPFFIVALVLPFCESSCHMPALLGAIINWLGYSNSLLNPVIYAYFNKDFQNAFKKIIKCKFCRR
Method: as §1
(1) Affinity for serotonin-1 receptor: ^3 H-8-hydroxy-2-(dipropylamino)tetralin(^3 H-8-OH-DPAT) binding assay
Preparation of synaptosomal membranes and ^3 H-8-OH-DPAT binding assay were performed according to the method of Hall et al(Journal of Neurochemistry, vol. 44, p. 1685, 1985).
Rat hyppocampus which was maintained in a freezed state was homogenized in 40-fold volumes of ice-cold 50 mM Tris-HCl buffer (pH 7.4) and centrifugated at 500 g for 10 minutes at 0° C. Further, the supernatant was centrifugated at 40,000 g for 20 minutes at 0° C. and the pellets thus obtained were homogenized in 40-fold volumes of the same buffer as mentioned above, and then incubated at 37° C. for 10 minutes. After incubation, the suspension was centrifugated at 40,000 g for 20 minutes at 0° C. The obtained pellets were washed by repeating twice the procedures of homogenization in the above-mentioned buffer and centrifugation. The suspension of synaptosomal membranes was prepared by homogenizing the pellets finally obtained in 60-fold volumes of 50 mM Tris-HCl buffer (pH 7.4) containing 1 mM manganese chloride.
To 900 μl of the membrane suspension were added 50 μl of ^3 H-8-OH-DPAT solution (final concentration: 0.2 nM), and 50 μl of the test compound solution or the solvent and the mixture was incubated at 37° C. for 10 minutes. After incubation, 5 ml of ice-cold 50 mM Tris-HCl buffer (pH 7.4) was added, and immediately thereafter, the mixture was filtered with suction through Whatman GF/B filter. The filter was washed twice with 5 ml of the same buffer as mentioned above and the radioactivity on the filter was measured by a liquid scintillation counter.

[2] = system: serotonin-induced head-twitch; test: Experiment 2 Anti-serotonin action (head-twitch method in mice); format: in vivo, male dd-strain mice; details: Mus musculus, po; serotonin 40 μg/0.02 ml i.c.v. 1 h after compound; head-twitch counted 5 min; probit method
Method: Experiment 2 Anti-serotonin action (head-twitch method in mice)
Groups of 8-30 male dd-strain mice were used. The test compounds were orally administered and an hour later, 40 μg/0.02 ml of serotonin was intracerebroventricularly administered. Ten minutes thereafter, the numbers of head-twitch were measured for 5 minutes. The ED50 values calculated by the probit method considering the number of head-twitch induced by the administration of serotonin with less than once as the inhibitory action by the test compound.

catalepsy = test: Experiment 4 Cataleptogenic action; format: in vivo, female Wistar-strain rats; details: rats, index of extrapyramidal side effects
Method: (§2) Then, the cataleptogenic action of the compound of Example 15 was studied for the purpose of measuring the degree of the extrapyramidal side effect. […]
(§3) Experiment 4 Cataleptogenic action
(§4) Groups of 10 female Wistar-strain rats were used. Catalepsy was measured by the partly modified method of Simon et al (Journal of Pharmacy and Pharmacology, vol. 22, P. 546, 1970). The front paws of the rats were placed gently on a vertical grid (4 mm diameter, 9 cm height).
(§5) After the compound of Example 15 was orally administered, catalepsy was measured with the passage of time in 9 hours.

[3] = Experiment 4 Cataleptogenic action; format: in vivo, female Wistar-strain rats; details: rat, in vivo, po; orally; peak time of catalepsy within 9 hours; probit method
Method: as §2, §3, §4, §5

T1 sequence (P14842 whole entry): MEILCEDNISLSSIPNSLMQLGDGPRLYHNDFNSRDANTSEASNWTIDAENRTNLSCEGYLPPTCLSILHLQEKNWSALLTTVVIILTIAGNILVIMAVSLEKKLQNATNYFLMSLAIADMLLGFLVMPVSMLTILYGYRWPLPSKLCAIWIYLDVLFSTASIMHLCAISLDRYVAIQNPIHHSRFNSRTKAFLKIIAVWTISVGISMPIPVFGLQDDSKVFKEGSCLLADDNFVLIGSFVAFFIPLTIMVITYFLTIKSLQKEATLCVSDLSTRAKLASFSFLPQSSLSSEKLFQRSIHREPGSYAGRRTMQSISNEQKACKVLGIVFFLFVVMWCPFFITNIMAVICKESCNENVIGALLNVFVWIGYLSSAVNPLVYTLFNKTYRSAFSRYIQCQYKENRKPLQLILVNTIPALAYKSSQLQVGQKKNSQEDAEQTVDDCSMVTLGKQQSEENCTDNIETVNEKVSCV

| SMILES | Ki (serotonin-2 receptor) | ED50 [1] | Ki (serotonin-1 receptor) | ED50 [2] | cataleptogenic action (in words) (catalepsy) | ED50 [3] |
| --- | --- | --- | --- | --- | --- | --- |
| Cc1cccc(N2CCN(CCCCc3ccc(C4CCC(=O)N4)cc3)CC2)c1 (centres unmarked) [Example 1, 5-[4-(4-(4-(3-methylphenyl)piperazin-1-yl)butyl)phenyl]pyrrolidin-2-one] | 23 nM | 13 mg/kg | 0.61 nM | 0.53 mg/kg |  |  |
| Cl.O=C1CCC(c2ccc(CCN3CCN(c4cccc(C(F)(F)F)c4)CC3)cc2)N1 (centres unmarked) [Example 2, 5-[4-(2-(4-(3-trifluoromethylphenyl)piperazin-1-yl)ethyl)phenyl]pyrrolidin-2-one hydrochloride] | 78 nM | 15 mg/kg | 0.31 nM | 0.15 mg/kg |  |  |
| O=C1CCC(c2ccc(CCCCN3CCN(c4ccc(F)cc4)CC3)cc2)N1 (centres unmarked) [Example 6, 5-[4-(4-(4-(4-fluorophenyl)piperazin-1-yl)butyl)phenyl]pyrrolidin-2-one] | 66 nM | 4.2 mg/kg | 4.7 nM | 2.2 mg/kg |  |  |
| COc1ccccc1N1CCN(CCCCc2ccc(C3CCC(=O)N3)cc2)CC1 (centres unmarked) [Example 7, 5-[4-(4-(4-(2-methoxyphenyl)piperazin-1-yl)butyl)phenyl]pyrrolidin-2-one] | 480 nM | 2.1 mg/kg | 0.28 nM | 3.5 mg/kg |  |  |
| O=C1CCC(c2ccc(CCCN3CCN(c4ccccc4)CC3)cc2)N1 (centres unmarked) [Example 9, 5-[4-(3-(4-phenylpiperazin-1-yl)propyl)phenyl]pyrrolidin-2-one] | 250 nM | 9.5 mg/kg | 4.5 nM | 2.4 mg/kg |  |  |
| Cl.Cl.O=C1CCC(c2ccc(CCCCN3CCN(c4cccc(C(F)(F)F)c4)CC3)cc2)N1 (centres unmarked) [Example 15, 5-[4-(4-(4-(3-trifluoromethylphenyl)piperazin-1-yl)butyl)phenyl]pyrrolidin-2-one dihydrochloride] | 63 nM | 4.2 mg/kg | 0.4 nM | 0.32 mg/kg | very weak cataleptic action | 250 mg/kg |
